This passage reports Ki results from patent US8461328B2, “Tricyclic heterocyclic compounds, compositions and methods of use thereof” (Genentech, Inc., priority 2010, dated 2013).

Common to all, as to format: biochemical
One assay deals with T1, JAK3 (Homo sapiens, UniProt P52333).
T1 construct: made in house; host or cells: SF9 insect cells (baculovirus)
Kind of assay: JAK3 inhibition (Table 4). To be noted: read-out: JAK3 Ki.

For a further assay, the target named is T2, JAK2 (Homo sapiens, UniProt O60674).
T2 construct: made in house; host or cells: SF9 insect cells (baculovirus)
T2 sequence (O60674 812-1132): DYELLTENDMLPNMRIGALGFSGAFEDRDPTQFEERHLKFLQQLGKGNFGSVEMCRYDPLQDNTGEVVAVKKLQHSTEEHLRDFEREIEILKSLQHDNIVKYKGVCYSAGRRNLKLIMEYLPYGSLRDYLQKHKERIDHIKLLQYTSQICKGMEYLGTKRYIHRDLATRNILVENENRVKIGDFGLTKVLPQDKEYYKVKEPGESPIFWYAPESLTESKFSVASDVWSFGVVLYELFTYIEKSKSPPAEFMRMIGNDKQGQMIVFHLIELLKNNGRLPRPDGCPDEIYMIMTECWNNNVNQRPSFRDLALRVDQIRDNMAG
Kind of assay: JAK2 inhibition (Table 4). To be noted: read-out: JAK2 Ki.

A further assay concerns the target T3, JAK1 (Homo sapiens, UniProt P23458).
T3 construct: made in house; host or cells: SF9 insect cells (baculovirus)
Kind of assay: JAK1 inhibition (Table 4). The note with it: read-out: JAK1 Ki.

The target in the next assay is T4, TYK2 (Homo sapiens, UniProt P29597).
T4 construct: made in house; host or cells: SF9 insect cells (baculovirus)
T4 sequence (P29597 873-1187): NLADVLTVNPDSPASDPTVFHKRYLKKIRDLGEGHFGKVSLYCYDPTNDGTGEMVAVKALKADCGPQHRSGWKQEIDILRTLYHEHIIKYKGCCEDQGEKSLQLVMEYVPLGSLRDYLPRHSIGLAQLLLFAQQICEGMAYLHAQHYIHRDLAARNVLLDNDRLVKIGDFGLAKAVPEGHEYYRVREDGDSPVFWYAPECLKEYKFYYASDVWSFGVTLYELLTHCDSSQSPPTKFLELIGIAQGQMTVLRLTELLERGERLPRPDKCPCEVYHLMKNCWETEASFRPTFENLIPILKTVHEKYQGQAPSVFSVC
Briefly: TYK2 inhibition (Table 4).

T3 sequence (P23458 852-1154): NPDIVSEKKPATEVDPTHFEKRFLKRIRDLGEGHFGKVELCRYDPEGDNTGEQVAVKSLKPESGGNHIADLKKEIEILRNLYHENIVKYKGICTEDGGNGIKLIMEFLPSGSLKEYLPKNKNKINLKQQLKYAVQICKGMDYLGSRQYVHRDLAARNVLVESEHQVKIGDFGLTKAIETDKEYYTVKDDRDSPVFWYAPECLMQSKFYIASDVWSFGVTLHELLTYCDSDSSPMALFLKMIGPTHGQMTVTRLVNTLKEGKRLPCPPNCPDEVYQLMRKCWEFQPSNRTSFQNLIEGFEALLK
T1 sequence (P52333 783-1124): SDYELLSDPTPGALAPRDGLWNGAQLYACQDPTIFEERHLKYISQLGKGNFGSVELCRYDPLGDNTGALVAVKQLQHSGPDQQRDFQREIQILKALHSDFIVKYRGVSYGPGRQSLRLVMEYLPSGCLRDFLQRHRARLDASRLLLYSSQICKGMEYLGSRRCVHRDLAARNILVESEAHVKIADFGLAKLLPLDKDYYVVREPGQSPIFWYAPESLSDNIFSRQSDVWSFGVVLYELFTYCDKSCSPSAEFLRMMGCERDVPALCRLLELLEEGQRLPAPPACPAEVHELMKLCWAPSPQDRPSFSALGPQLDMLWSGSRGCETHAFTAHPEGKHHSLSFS

Broadly, the Ki is a dissociation constant, usually derived from enzyme kinetics or from competition with a known ligand. For `O=C(C1CC1F)N1CCC[C@@H](n2cnc3cnc4[nH]ccc4c32)C1` (mixture of isomers) [Example 235, (2-Fluoro-cyclopropyl)-[(R)-3-(6H-1,3,5,6-tetraaza-as-indacen-1-yl)-piperidin-1-yl]-methanone], the Ki on JAK3 came out at 42.6 nM; at JAK2 it was 6.56 nM; at JAK1 it was 4.37 nM; on TYK2 it was 17.9 nM.

Regarding `CC(C)(C)OC(=O)N1CCCC1(C)C(=O)N1CCC(n2cnc3cnc4[nH]ccc4c32)CC1` (racemic) [Example 244, 2-Methyl-2-[4-(6H-1,3,5,6-tetraaza-as-indacen-1-yl)-piperidine-1-carbonyl]-pyrrolidine-1 carboxylic acid tert-butyl ester], the Ki on JAK3 was found to be 3400 nM; on JAK2, 363 nM; on JAK1 it was 198 nM; on TYK2 it was 1820 nM.

As to `CC1(C(=O)N2CCC(n3cnc4cnc5[nH]ccc5c43)CC2)CCCN1` (racemic) [Example 251], the Ki was determined as 2040 nM on JAK3, 269 nM at JAK2, 216 nM on JAK1 and 3450 nM on TYK2.

Turning to `CC(O)c1nc2cnc3[nH]ccc3c2n1C1CCNCC1` (racemic) [Example 291], the Ki on JAK3 stood at 731 nM; at JAK2, 854 nM; on JAK1 it was 10.2 nM; at TYK2, 339 nM.

As for `CC(O)c1nc2cnc3[nH]ccc3c2n1C1CCN(Cc2cccnc2)CC1` (racemic) [Example 292, 1-[1-(1-Pyridin-3-ylmethyl-piperidin-4-yl)-1,6-dihydro-1,3,5,6-tetraaza-as-indacen-2-yl]-ethanol], the Ki on JAK3 was 7.9 nM; on JAK2 it was 26.5 nM; at JAK1, 2.92 nM; on TYK2 it was 218 nM.

Regarding `NC1CCC(n2cnc3cnc4[nH]ccc4c32)C1` (racemic) [Example 294, 3-(6H-1,3,5,6-Tetraaza-as-indacen-1-yl)-cyclopentylamine], the Ki at JAK3 is 151 nM; on JAK2 it was 176 nM; on JAK1, 37.6 nM; at TYK2, 380 nM.

As to `N#CCCNC1CCC(n2cnc3cnc4[nH]ccc4c32)C1` (racemic) [Example 300, 3-[3-(6H-1,3,5,6-Tetraaza-as-indacen-1-yl)-cyclopentylamino]-propionitrile], the Ki came to 28.8 nM on JAK3, 18.3 nM at JAK2, 7.81 nM on JAK1 and 65.9 nM on TYK2.

As for `CC(CC#N)N1CCC(n2cnc3cnc4[nH]ccc4c32)CC1` (racemic) [Example 305, 3-[4-(6H-1,3,5,6-Tetraaza-as-indacen-1-yl)-piperidin-1-yl]-butyronitrile], the Ki was determined as 17 nM at JAK3, 0.93 nM at JAK2, 0.78 nM at JAK1 and 3.7 nM on TYK2.

As for `CC1CNCCC1n1cnc2cnc3[nH]ccc3c21` (racemic) [Example 306, 1-(3-Methyl-piperidin-4-yl)-1,6-dihydro-1,3,5,6-tetraaza-as-indacene], the Ki on JAK3 turned out to be 468 nM; on JAK2, 156 nM; on JAK1, 34.9 nM; at TYK2, 449 nM.

As to `CC1CNCCC1n1cnc2cnc3[nH]ccc3c21` (racemic) [Example 312, 1-(3-Methyl-piperidin-4-yl)-1,6-dihydro-1,3,5,6-tetraaza-as-indacene], the Ki on JAK3 is 626 nM; at JAK2, 415 nM; at JAK1 it was 47.6 nM; on TYK2, 1050 nM.

For `CC1CN(CCC#N)CCC1n1cnc2cnc3[nH]ccc3c21` (racemic) [Example 323, 3-[3-Methyl-4-(6H-1,3,5,6-tetraaza-as-indacen-1-yl)-piperidin-1-yl]-propionitrile], the Ki on JAK3 was 6.77 nM; on JAK2 it was 1.77 nM; on JAK1, 0.81 nM; at TYK2 it was 7.81 nM.

Regarding `CC1CN(CCC#N)CCC1n1cnc2cnc3[nH]ccc3c21` (racemic) [Example 324, 3-[3-Methyl-4-(6H-1,3,5,6-tetraaza-as-indacen-1-yl)-piperidin-1-yl]-propionitrile], the Ki stood at 5.2 nM on JAK3, 0.6 nM on JAK2, 0.63 nM at JAK1 and 3.76 nM on TYK2.

`CC1CN(Cc2cncnc2)CCC1n1cnc2cnc3[nH]ccc3c21` (racemic) [Example 342, 1-(3-Methyl-1-pyrimidin-5-ylmethyl-piperidin-4-yl)-1,6-dihydro-1,3,5,6-tetraaza-as-indacene]: the inhibitory constant (Ki) at JAK3 worked out at 23.4 nM; at JAK2 it was 2.36 nM; on JAK1, 2 nM; at TYK2, 24.9 nM.

Turning to `CC1CN(Cc2cncnc2)CCC1n1cnc2cnc3[nH]ccc3c21` (racemic) [Example 343, 1-(3-Methyl-1-pyrimidin-5-ylmethyl-piperidin-4-yl)-1,6-dihydro-1,3,5,6-tetraaza-as-indacene], the Ki at JAK3 was 3.2 nM; on JAK2, 14 nM; on JAK1, 5.71 nM; on TYK2, 346 nM.

Consider `CC1CN(S(C)(=O)=O)CCC1n1cnc2cnc3[nH]ccc3c21` (racemic) [Example 344, 1-(1-Methanesulfonyl-3-methyl-piperidin-4-yl)-1,6-dihydro-1,3,5,6-tetraaza-as-indacene], for which the Ki worked out at 80.4 nM on JAK3, 30.3 nM on JAK2, 15.7 nM at JAK1 and 329 nM at TYK2.

With `CC1CN(S(C)(=O)=O)CCC1n1cnc2cnc3[nH]ccc3c21` (racemic) [Example 345, 1-(1-Methanesulfonyl-3-methyl-piperidin-4-yl)-1,6-dihydro-1,3,5,6-tetraaza-as-indacene], the Ki came out at 354 nM at JAK3, 9.67 nM on JAK2, 9.12 nM at JAK1 and 37.3 nM at TYK2.

As to `CC(O)c1nc2cnc3[nH]ccc3c2n1C1CCN(Cc2ccnc(C#N)c2)CC1` (racemic) [Example 350, 4-{4-[2-(1-Hydroxy-ethyl)-6H-1,3,5,6-tetraaza-as-indacen-1-yl]-piperidin-1-ylmethyl}-pyridine-2-carbonitrile], the Ki was found to be 178 nM on JAK3, 50.4 nM on JAK2, 6.44 nM on JAK1 and 269 nM on TYK2.

Consider `CC(O)c1nc2cnc3[nH]ccc3c2n1C1CCN(Cc2csc(C(F)(F)F)n2)CC1` (racemic) [Example 351, 1-{1-[1-(2-Trifluoromethyl-thiazol-4-ylmethyl)-piperidin-4-yl]-1,6-dihydro-1,3,5,6-tetraaza-as-indacen-2-yl}-ethanol], for which the Ki on JAK3 turned out to be 31.4 nM; at JAK2 it was 29.2 nM; at JAK1, 4.94 nM; on TYK2, 284 nM.

Consider `Cc1nc2cnc3[nH]ccc3c2n1C1CCC(NC(=O)OC(C)(C)C)C1` (racemic) [Example 352, [(1S,3S)-3-(2-Methyl-6H-1,3,5,6-tetraaza-as-indacen-1-yl]-cyclopentyl]-carbamic acid tert-butyl ester], for which the Ki is 23.7 nM on JAK3, 5.62 nM on JAK2, 1.03 nM on JAK1 and 44.6 nM on TYK2.

Take `CC(O)c1nc2cnc3[nH]ccc3c2n1C1CCN(CC(F)(F)F)CC1` (racemic) [Example 355, 1-{1-[1-(2,2,2-Trifluoro-ethyl)-piperidin-4-yl]-1,6-dihydro-1,3,5,6-tetraaza-as-indacen-2-yl}-ethanol]: the Ki at JAK3 was 41.2 nM; at JAK2 it was 44.8 nM; on JAK1 it was 3.79 nM; on TYK2 it was 34.5 nM.

Turning to `CCC(C)S(=O)(=O)NCCc1nc2cnc3[nH]ccc3c2n1C1CCN(CCC#N)CC1` (racemic) [Example 369, Butane-2-sulfonic acid (2-{1-[1-(2-cyano-ethyl)-piperidin-4-yl]-1,6-dihydro-1,3,5,6-tetraaza-as-indacen-2-yl}-ethyl)-amide], the Ki was 25.5 nM on JAK3, 14.4 nM on JAK2, 2.74 nM at JAK1 and 71.8 nM on TYK2.

Take `CN1CC(c2nc3cnc4[nH]ccc4c3n2C2CCN(CCC#N)CC2)CC1=O` (racemic) [Example 384, 3-{4-[2-(1-Methyl-5-oxo-pyrrolidin-3-yl)-6H-1,3,5,6-tetraaza-as-indacen-1-yl]-piperidin-1-yl}-propionitrile]: the Ki came out at 48.1 nM on JAK3, 138 nM on JAK2, 17.5 nM on JAK1 and 526 nM on TYK2.

For `CC(C)N1CC(c2nc3cnc4[nH]ccc4c3n2C2CCN(CCC#N)CC2)CC1=O` (racemic) [Example 388, 3-{4-[2-(1-Isopropyl-5-oxo-pyrrolidin-3-yl)-6H-1,3,5,6-tetraaza-as-indacen-1-yl]-piperidin-1-yl}-propionitrile], the Ki was 77.3 nM at JAK3, 167 nM on JAK2, 23.6 nM at JAK1 and 446 nM on TYK2.

In the case of `CC(=O)N1CCC(c2nc3cnc4[nH]ccc4c3n2C2CCN(CCC#N)CC2)C1` (racemic) [Example 390, 3-{4-[2-(1-Acetyl-pyrrolidin-3-yl)-6H-1,3,5,6-tetraaza-as-indacen-1-yl]-piperidin-1-yl}-propionitrile], the Ki on JAK3 worked out at 47.9 nM; on JAK2, 75.6 nM; on JAK1, 21.5 nM; at TYK2, 446 nM.
